Test results from patent US11654198B2, “Application of combination of polyethylene glycol and local anesthetic in non-narcotic analgesia” (JENKEM TECHNOLOGY CO., LTD. (TIANJIN), priority 2016, dated 2023).

Tests used:
SD rats [1] = test: Sensory block, hot plate paw withdrawal time, non-anesthetic analgesic effect of PEG-bupivacaine conjugate (Example 30); assay type: in vivo, rat; conditions: for hot plate paw withdrawal time: conjugate 10/11/12 at 32/24/48 mg/kg (as bupivacaine); for time after administration at which hot plate paw withdrawal time is significantly higher than vehicle group: conjugate 10/11/12 at 32/24/48 mg/kg, direct injection; for time the analgesic effect could reach: conjugate 10 at 32 mg/kg, conjugate 11 at 24 mg/kg
Protocol: Male Sprague-Dawley rats are used in the study, about 230-250 g when accepted, and acclimated for at least 7 days prior to the experiment. Two rats are raised in each cage and fed freely with feed and water. The environmental conditions of the breeding room are 23±2° C., and the relative humidity is 40% to 70%, alternating 12 hours of light and dark. […] The qualified rats are randomly divided into 4 groups, 4 rats in each group, which are labeled as groups G1, G2, G3, and G4, respectively. Administration by direct injection in the sciatic nerve is adopted, and with the rat's back facing up, the drug is injected around the right sciatic nerve trunk between the right hip and the right thigh.
(§1) Sensory block (hot plate paw withdrawal time): The sensory block of the rat is examined by a hot plate method, and the hot plate is heated to (56±1)° C., and one of the hind paws of the rat is placed on the hot plate. The other hind paw is in the laboratory room temperature condition, and the tested paw withdrawal time is observed and recorded. The average value of two to three times measured is recorded as a pain threshold. In order to avoid the damage of the experimental animal body, if the rat has no paw withdrawal in the hot plate experiment for more than 15 s, the rat should be removed from the hot plate, and the experimental result is recorded as 15 s. The time point for determining the paw withdrawal time of the hot plate is before administration, and 0.5 h, 1 h, 2 h, 4 h, 6 h, 8 h, 10 h, 12 h, and 24 h after administration.

SD rats [2] = test: Hot plate paw withdrawal time, rat plantar incision model (Example 31); assay type: in vivo; conditions: for time the analgesic effect can reach: conjugate 10/11/12 at 32/24/48 mg/kg
Protocol: After SD rats inhale anesthesia (isoflurane), an incision of about 1 cm in length from the proximal end of the pelma to the toe is made: after the skin and fascia are cut, the plantar muscle is picked up with an ophthalmic forceps and cut longitudinally (maintaining the starting and ending point and attachment of muscles); pressing is carried out for hemostasis, physiological saline and test drugs are injected into the muscles of animal's legs, and then the pain threshold detection is performed by the hot plate method. Within 24 hours after the model is successful, the rats develop significant hyperalgesia. Qualified rats are randomly divided into 5 groups, 6 rats in each group, which are labeled as groups G1, G2, G3, G4 and G5, respectively. The plantar subcutaneous injection method for administration is used, and the grouping information of the experimental animals is shown in Table 8.
as §1, with “the hot plate, the other hind” for “the hot plate. The other hind”, “s, the paws should be” for “s, the rat should be”, “8 h, 12 h,” for “8 h, 10 h, 12 h,”

SD rats [3] = test: Motor block four-level score, rat sciatica model (SNL) (Example 32); assay type: in vivo; parameters: key to motor function score: 1 = normal paw movement to 4 = complete loss, gait defect; conditions: for motor function score: bupivacaine 8, conjugate 10/11/12 32/24/48 mg/kg; for effect on motor function of SD rats: conjugate 10/11/12 at 32/24/48 mg/kg
Text: Intervertebral disc compression (SNL): This model is a pathological form that simulates clinical disc herniation. The specific method is to remove the autogenous caudal intervertebral disc tissue (annulus fibrosus and nucleus pulposus) form the rats and place the caudal intervertebral disc tissue between the proximal nerve root of the L5 dorsal root ganglion and the lower vertebral body to directly compress the L5 nerve root, wherein damage to the L5 nerve root or dorsal root ganglion should be avoided during the operation. 3 to 15 days after the model is successful, rats develop significant hyperalgesia, so the administration time we chose is between 3 days and 15 days.
Qualified rats are randomly divided into 5 groups, 6 rats in each group, which are labeled as groups G1, G2, G3, G4 and G5, respectively. Administration by intramuscular injection around sciatic nerve is adopted, and the grouping information of the experimental animals is shown in Table 11.
Motor block (four-level score): The exercise condition of each group of rats is evaluated by the motor block four-level scoring method. The scoring criteria are: paws can be dorsiflexed, stretched, valgus and other normal exercises, scored by 1 point; paws can be dorsiflexed, bendable or after the adduction, although the paws can be stretched, the stretching ability is weakened, scored by 2 points; the paw can perform dorsiflexion, but no longer has the ability to stretch, scored by 3 points; the paw completely loses the ability of dorsiflexion, curling and stretching, and the rats produce a gait defect, scored by 4 points. The time point for determining the withdrawal time of the hot plate is before administration, and 0.5 h, 1 h, 2 h, 4 h, 6 h, 8 h, 12 h, and 24 h after administration.

[4] = 0.5 h after direct injection around sciatic nerve
[5] = 2 h after direct injection around sciatic nerve
[6] = 4 h after direct injection around sciatic nerve
[7] = 6 h after direct injection around sciatic nerve
[8] = 8 h after direct injection around sciatic nerve
[9] = 10 h after direct injection around sciatic nerve
[10] = 12 h after direct injection around sciatic nerve
[11] = 24 h after direct injection around sciatic nerve
[12] = l h after direct injection around sciatic nerve
[13] = 0 h (after surgery, before administration), bupivacaine 8, conjugate 10/11/12 32/24/48 mg/kg
[14] = 0.5 h after plantar subcutaneous injection, bupivacaine 8, conjugate 10/11/12 32/24/48 mg/kg
[15] = 1 h after plantar subcutaneous injection, bupivacaine 8, conjugate 10/11/12 32/24/48 mg/kg
[16] = 2 h after plantar subcutaneous injection, bupivacaine 8, conjugate 10/11/12 32/24/48 mg/kg
[17] = 4 h after plantar subcutaneous injection, bupivacaine 8, conjugate 10/11/12 32/24/48 mg/kg
[18] = 6 h after plantar subcutaneous injection, bupivacaine 8, conjugate 10/11/12 32/24/48 mg/kg
[19] = 8 h after plantar subcutaneous injection, bupivacaine 8, conjugate 10/11/12 32/24/48 mg/kg
[20] = 12 h after plantar subcutaneous injection, bupivacaine 8, conjugate 10/11/12 32/24/48 mg/kg
[21] = 24 h after plantar subcutaneous injection, bupivacaine 8, conjugate 10/11/12 32/24/48 mg/kg
[22] = base value before surgery, bupivacaine 8, conjugate 10/11/12 32/24/48 mg/kg (as bupivacaine)
[23] = bupivacaine 8, conjugate 10/11/12 32/24/48 mg/kg

Molecule | hot plate paw withdrawal time (SD rats [1]; [4]) [s] | hot plate paw withdrawal time (SD rats [1]; [5]) [s] | hot plate paw withdrawal time (SD rats [2]; [13]) [s] | hot plate paw withdrawal time (SD rats [2]; [14]) [s] | hot plate paw withdrawal time (SD rats [2]; [15]) [s] | hot plate paw withdrawal time (SD rats [2]; [16]) [s] | hot plate paw withdrawal time (SD rats [2]; [17]) [s] | hot plate paw withdrawal time (SD rats [2]; [18]) [s] | hot plate paw withdrawal time (SD rats [2]; [19]) [s] | hot plate paw withdrawal time (SD rats [2]; [20]) [s] | hot plate paw withdrawal time (SD rats [2]; [21]) [s] | hot plate paw withdrawal time (SD rats [2]; [22]) [s] | motor function score (SD rats [3]; 0.5 h) | motor function score (SD rats [3]; 1 h) | motor function score (SD rats [3]; 2 h) | motor function score (SD rats [3]; 4 h) | motor function score (SD rats [3]; 6 h) | motor function score (SD rats [3]; 8 h) | motor function score (SD rats [3]; 12 h) | motor function score (SD rats [3]; 24 h) | also measured
8-Arm-PEG-Bupivacaine, 20K [bupivacaine conjugate 11] | 9.60 | 5.02 | 1.26 | 7.43 | 8.49 | 9.10 | 7.91 | 8.65 | 2.19 | 1.89 | 1.56 | 4.97 | 1 ± 0 | 1 ± 0 | 1 ± 0 | 1 ± 0 | 1 ± 0 | 1 ± 0 | 1 ± 0 | 1 ± 0 | hot plate paw withdrawal time (SD rats [1]; [6]): 6.65 s; hot plate paw withdrawal time (SD rats [1]; [7]): 6.44 s; hot plate paw withdrawal time (SD rats [1]; [8]): 3.69 s; hot plate paw withdrawal time (SD rats [1]; [9]): 3.24 s; hot plate paw withdrawal time (SD rats [1]; [10]): 2.62 s; hot plate paw withdrawal time (SD rats [1]; [11]): 3.77 s; time after administration at which hot plate paw withdrawal time is significantly higher than vehicle group (SD rats [1]): ≤ 6 h; time the analgesic effect could reach (SD rats [1]): 6 h; hot plate paw withdrawal time (SD rats [1]; [12]): 9.99 s; time after administration at which hot plate paw withdrawal time is significantly higher than vehicle group (SD rats [2]; [23]): ≤ 6 h; time the analgesic effect can reach (SD rats [2]): ≥ 6 h; effect on motor function of SD rats (SD rats [3]): does not affect the motor function
CCCCN1CCCCC1C(=O)Nc1c(C)cccc1C (stereo not drawn) [bupivacaine] | – | – | 1.02 | 7.21 | 6.91 | 1.30 | 1.51 | 1.32 | 2.41 | 1.41 | 1.45 | 4.70 | 1 ± 0 | 1.75 ± 0.5 | 1.75 ± 0.5 | 1.75 ± 0.5 | 1.75 ± 0.5 | 1.75 ± 0.5 | 1 ± 0 | 1 ± 0 | –
8-Arm-PEG-Bupivacaine, 20K [bupivacaine conjugate 12] | 6.49 | 3.52 | 1.89 | 8.13 | 7.21 | 6.12 | 2.49 | 2.34 | 2.10 | 1.92 | 1.76 | 5.81 | 1 ± 0 | 1 ± 0 | 1 ± 0 | 1 ± 0 | 1 ± 0 | 1 ± 0 | 1 ± 0 | 1 ± 0 | hot plate paw withdrawal time (SD rats [1]; [6]): 4.82 s; hot plate paw withdrawal time (SD rats [1]; [7]): 4.59 s; hot plate paw withdrawal time (SD rats [1]; [8]): 4.34 s; hot plate paw withdrawal time (SD rats [1]; [9]): 4.30 s; hot plate paw withdrawal time (SD rats [1]; [10]): 2.80 s; hot plate paw withdrawal time (SD rats [1]; [11]): 3.25 s; time after administration at which hot plate paw withdrawal time is significantly higher than vehicle group (SD rats [1]): ≤ 2 h; hot plate paw withdrawal time (SD rats [1]; [12]): 6.77 s; time after administration at which hot plate paw withdrawal time is significantly higher than vehicle group (SD rats [2]; [23]): ≤ 2 h; time the analgesic effect can reach (SD rats [2]): 2 h; effect on motor function of SD rats (SD rats [3]): does not affect the motor function
8-Arm-PEG-Bupivacaine, 20K [bupivacaine conjugate 10] | 11.85 | 8.91 | 1.41 | 6.52 | 7.91 | 6.21 | 6.79 | 7.42 | 7.43 | 2.10 | 1.32 | 5.20 | 1 ± 0 | 1.75 ± 0.5 | 1.75 ± 0.5 | 1.75 ± 0.5 | 1.75 ± 0.5 | 1.75 ± 0.5 | 1 ± 0 | 1 ± 0 | hot plate paw withdrawal time (SD rats [1]; [6]): 10.74 s; hot plate paw withdrawal time (SD rats [1]; [7]): 11.92 s; hot plate paw withdrawal time (SD rats [1]; [8]): 8.49 s; hot plate paw withdrawal time (SD rats [1]; [9]): 6.64 s; hot plate paw withdrawal time (SD rats [1]; [10]): 3.82 s; hot plate paw withdrawal time (SD rats [1]; [11]): 3.81 s; time the analgesic effect could reach (SD rats [1]): 8 h; hot plate paw withdrawal time (SD rats [1]; [12]): 11.98 s; time the analgesic effect can reach (SD rats [2]): 8 h; effect on motor function of SD rats (SD rats [3]): does not affect the motor function
